{"source": "patent US5861477A", "about": "(priority 1996, dated 1999)", "key": {"TrPepz": {"system": "TrPepz", "assay": "TrPepz (synthetic cyclic peptide catalyst mimicking the active site of trypsin)", "settings": "up to 3 hrs"}, "[1]": {"assay": "Chymotryptic activity: hydrolysis of BTEE", "type": "biochemical", "settings": "in words", "description": "Chymotryptic activity. The catalytic activity of αCT and CHPepz was determined by hydrolysis of BTEE in 0.08M Tris buffer, pH 7.8 containing 0.01M CaCl2 as described (Hummel, B. C. W. (1959) Can. J. Biochem. Physiol. 37, 1393-1399). Assays were done at 25° C. using 8.06×10^-4 μmoles of αCT or 7.49×10^-4 μmoles of ChPepz and different substrate concentrations (from 3 to 6 mM) in a total reaction volume of 1.0 ml. The change of absorbance at 256 nm was monitored on a recording spectrophotometer against a reference cuvette containing 1 ml of the same concentration of BTEE, but without αCT or ChPepz.\n1.0 ml of substrate (BTEE) was mixed with solutions (10 μl aliquots) of ChPepz, or negative control peptides (containing 1-10 μg/10 μl) or αCT and activity was monitored by increase in absorbance at 256 nm at 37° C. (or at room temperature).\nChPepz solution was made in 10^-3 N HCl, since it will not digest itself in this solvent. Solutions of ChPepz were always made immediately before use. […] After mixing ChPepz with substrate (BTEE), there was typically a lag of 2-5 min (depending on pepzyme/substrate ratio) before any change in A256 was observed. However, in the early stages of the purification, the activity needed to be monitored over a period of several hours. It was important to ensure that negative controls (containing unrelated peptides in amounts similar to those of ChPepz in the test samples) were also monitored at the same time because the background absorbance will increase and the test samples had to be corrected for this background. As the sample's purity improves, maximum A256 was achieved more quickly. See, e.g., Atassi, M. Z. in Immunochemistry of Proteins, ed. […]\nTryptic activity. […] Kinetic constants for hydrolysis of BTEE and TAME were determined from the linear plots of 1/initial velocity (Vi in μmoles/min) versus 1/substrate concentration as described (Lineweaver, H. and Burk, D. (1934) J. Amer. Chem. Soc. 56, 658).\nInhibition of Enzymatic Activity. […] Activities were monitored spectrophotometrically as above and were compared to uninhibited controls. […]"}, "[2]": {"assay": "Tryptic activity: hydrolysis of TAME", "type": "biochemical", "settings": "for Km / kcat / kcat /Km: hydrolysis of TAME, pH 8.0 and 25° C.", "description": "Tryptic activity. Measurement of tryptic activity was done in 0.046M Tris-HCl buffer, pH 8.0, containing 0.0115M CaCl2 as described (Hummel, B. C. W. (1959), id) using TAME as the substrate. For the assays, 8.4×10^-4 μmoles of […] or 1.6 c 10^-3 μmoles of TrPepz were allowed to hydrolyze different amounts of substrate at 25° C. in a total reaction volume of 1.0 ml. […] Kinetic constants for hydrolysis of BTEE and TAME were determined from the linear plots of 1/initial velocity (Vi in μmoles/min) versus 1/substrate concentration as described (Lineweaver, H. and Burk, D. (1934) J. Amer. Chem. Soc. 56, 658).\nTo TAME solutions (1 ml containing different amounts of substrate), an aliquot (10 μl) of TrPepz, or negative control peptide solutions (containing 1-10 μg/10 μl) was added, mixed immediately and the increase of absorbance at 247 nm was measured at 37° C. (or at room temperature).\nTrPepz solutions were always made immediately before use. Although TrPepz has no potential tryptic cleavage points, it lost activity on standing in solution at 4° C. […] TrPepz will not act on chromogenic substrates--it was inhibited by p-nitro analine (and probably is inhibited by other aromatic amines). After mixing TrPepz with substrate, there was a lag of 2-5 minutes (depending on pepzyme/substrate ratio) before any change in A247 was observed. In the early stages of the purification, the activity was always monitored over a period of several hours. Negative controls (containing unrelated peptides in amounts similar to those of TrPepz in the test samples) were also monitored at the same time because the background absorbance will increase and the test samples had to be corrected for this background. As the sample's purity improved, maximum A247 was achieved more quickly.\nInhibition of Enzymatic Activity. The effects of inhibitors or disulfide bond reduction on enzymatic activities were done as described above except that the enzymes were pre-mixed (3 hrs, 25° C.) with 10 molar excess of inhibitor (or DTT) prior to addition to the substrate (140-150 molar excess relative to the catalyst). Activities were monitored spectrophotometrically as above and were compared to uninhibited controls.\nIn addition, test were performed which compared the activity of the two proteases under differing temperature parameters."}, "myoglobin and casein": {"system": "myoglobin and casein", "assay": "Hydrolysis of proteins by enzymes or peptide enzyme catalysts (peptide maps)", "type": "biochemical, sperm-whale (myoglobin), bovine (casein)", "description": "Hydrolysis of Proteins by Enzymes or Peptide Enzyme Catalysts. Hydrolyses were done at 37° C. on aliquots (200 μl) containing 1 mg of myoglobin (5.6×10-2 μmoles) or casein (4.2×10^-2 μmoles) in 0.1M triethylamine-acetic acid buffer, pH 8.0 with 51 μg of αCT (2.06×10^-3 μmoles) and 2.9 μg of ChPepz (1.1×10^-3 μmoles) for 31/2 hrs or with 49 μg trypsin (2.06×10^-3 μmoles) and 5.0 μg TrPepz (1.87×10^-3 μmoles) for 8 hrs. The samples were then acidified (to pH 3.0) with 0.1M HCl freeze-dried and redissolved in 100 μl of H2 O at pH 3.0, and the entire sample was applied as a single spot to Whatman No. 3MM paper and subjected, in the first dimension, to ascending chromatography in n-butanol-acetic acid-water (4:1:5, vol/vol) followed by high voltage electrophoresis (3000 volts, 55 min), in the second dimension, in pyridine-acetic acid-water (1:10:289, vol/vol), pH 3.65, as described (Atassi, M. Z. and Saplin, B. J. (1968) Biochemistry 7, 688-698). The papers were then dried, steamed and stained with 0.2% ninhydrin in ethanol and the color was allowed to develop at room temperature. The papers were photographed 48 hrs after staining."}, "[3]": {"system": "model peptides (SEQ ID NO:7-10)", "assay": "Action of TrPepz on model peptides", "type": "biochemical"}, "[4]": {"assay": "Loss of pepzyme activity on storage in solution and on freezing and thawing", "type": "physicochemical", "description": "ChPepz solution was made in 10^-3 N HCl, since it will not digest itself in this solvent. Solutions of ChPepz were always made immediately before use. […] After mixing ChPepz with substrate (BTEE), there was typically a lag of 2-5 min (depending on pepzyme/substrate ratio) before any change in A256 was observed. However, in the early stages of the purification, the activity needed to be monitored over a period of several hours. It was important to ensure that negative controls (containing unrelated peptides in amounts similar to those of ChPepz in the test samples) were also monitored at the same time because the background absorbance will increase and the test samples had to be corrected for this background. As the sample's purity improves, maximum A256 was achieved more quickly. See, e.g., Atassi, M. Z. in Immunochemistry of Proteins, ed. M. Z. Atassi, Vol. 2, pp. 77-176, Plenum, New York, N.Y. (1977); King, D. S., et al. Int. J. Pept. Prot. Res. 36: 255-266 (1990).\nTrPepz solutions were always made immediately before use. […] In the early stages of the purification, the activity was always monitored over a period of several hours. Negative controls (containing unrelated peptides in amounts similar to those of TrPepz in the test samples) were also monitored at the same time because the background absorbance will increase and the test samples had to be corrected for this background. […]"}, "[5]": {"settings": "TAME, pH 8.0 and 25° C., cited from earlier work"}}, "note": "Entries after “also recorded” stand apart in the source; their conditions may differ. Where two headings read alike, the source gives them in different places. Bridges are numbered along the chain shown (N, C = ends). Where no end group is shown, it is not given here.", "data": [{"molecule": "DNYRGYSLG", "values": [{"measurement": "cleaved bond", "setting": "TrPepz", "value": "Arg-Gly"}]}, {"molecule": "QLEPSTSSAVPLIGKG", "values": [{"measurement": "cleaved bond", "setting": "TrPepz", "value": "Lys-Gly"}]}, {"molecule": "cyclo(-S-cystinyl-glycyl-tyrosyl-histidyl-phenylalanyl-glycyl-glycyl-seryl- aspartyl-glycyl-glutamyl-glycyl-seryl-aspartyl-glycyl-glycyl-valyl-seryl-tryptophanyl-glycyl-leucyl-glycyl-glycyl-aspartyl-glycyl-alanyl-alanyl-histidyl-cystinyl-S) (CGYHFGGSDGEGSDGGVSWGLGGDGAAHC; disulfide 1-29) [TrPepz]", "values": [{"measurement": "hydrolytic activity on BTEE", "setting": "[1]", "value": "zero activity; also recorded: no effect; also recorded: not hydrolyzed; also recorded: not hydrolysed"}, {"measurement": "activity on TAME after reduction of the disulfide bond (cyclic structure)", "setting": "[2]; 10 molar excess of DTT", "value": "zero activity; also recorded: fully inactivated; also recorded: completely lost"}, {"measurement": "activity on TAME in presence of TPCK", "setting": "[2]; 10 molar excess of TPCK", "value": "the two curves superimposed; also recorded: not by TPCK; also recorded: not affected"}, {"measurement": "activity on TAME in presence of BPTI", "setting": "[2]; 10 molar excess of inhibitor", "value": "zero activity; also recorded: completely inhibited; also recorded: inhibited entirely"}, {"measurement": "activity on TAME in presence of DIFP", "setting": "[2]; 10 molar excess of inhibitor", "value": "zero activity; also recorded: fully inactivated; also recorded: inhibited entirely; also recorded: completely inhibited"}, {"measurement": "activity on TAME in presence of PMSF", "setting": "[2]; 10 molar excess of inhibitor", "value": "zero activity; also recorded: fully inactivated; also recorded: inhibited entirely; also recorded: completely inhibited"}, {"measurement": "activity on TAME in presence of human α1 -antitrypsin", "setting": "[2]; 10 molar excess of inhibitor", "value": "zero activity; also recorded: completely inhibited; also recorded: inhibited entirely"}, {"measurement": "activity on TAME in presence of soybean trypsin inhibitor", "setting": "[2]; 10 molar excess of inhibitor", "value": "completely inhibited; also recorded: inhibited entirely"}, {"measurement": "% Activity of Native Enzyme at 35° C.", "setting": "[2]; Temp. 10", "value": 7.4, "unit": "%"}, {"measurement": "% Activity of Native Enzyme at 35° C.", "setting": "[2]; Temp. 35", "value": "approx. 40%"}, {"measurement": "% Activity of Native Enzyme at 35° C.", "setting": "[2]; Temp. 48", "value": "approx. 50%"}, {"measurement": "lag before any change in A247", "setting": "[2]; after mixing with substrate, depends on pepzyme/substrate ratio", "value": "2 to 5", "unit": "min"}, {"measurement": "Km", "setting": "[2]", "value": "2420 ± 90", "unit": "µM"}, {"measurement": "kcat", "setting": "[2]", "value": "85 ± 2.6", "unit": "sec.^-1"}, {"measurement": "kcat /Km", "setting": "[2]", "value": 35000, "unit": "M⁻¹ s⁻¹"}, {"measurement": "rate of TAME hydrolysis relative to the rate obtained with the enzyme itself", "setting": "[2]; relative to trypsin", "value": "about 40%"}, {"measurement": "inhibition by p-nitro analine", "setting": "[2]; will not act on chromogenic substrates", "value": "inhibited"}, {"measurement": "hydrolysis of myoglobin and casein, peptides compared with those of the respective enzyme", "setting": "myoglobin and casein; 37° C., pH 8.0, 3 1/2 hrs (ChPepz) or 8 hrs (TrPepz)", "value": "essentially the same as the pattern of the respective protein obtained by tryptic hydrolysis"}, {"measurement": "proteolytic activity in presence of DIFP", "setting": "myoglobin and casein; protein substrates", "value": "completely inhibited"}, {"measurement": "proteolytic activity in presence of PMSF", "setting": "myoglobin and casein; protein substrates", "value": "completely inhibited"}, {"measurement": "proteolytic activity in presence of TPCK", "setting": "myoglobin and casein; protein substrates", "value": "no effect"}, {"measurement": "efficiency at hydrolyzing Lys-Lys, Lys-Lys-Lys, Arg-Lys and Lys-Arg bonds compared with trypsin", "setting": "myoglobin and casein; yields of lysine and arginine in hydrolysates", "value": "more efficient than trypsin"}, {"measurement": "hydrolysis of the Lys-Gly bond of peptide SEQ ID NO:7", "setting": "[3]; 3 hrs, molar ratio of substrate/TrPepz, 1:60", "value": "over 95%"}, {"measurement": "cleavage of lysozyme sequences SEQ ID NO:8, 9, 10 at the C-bond of lysine and arginine", "setting": "[3]; no other products", "value": "completely cleaved"}, {"measurement": "freezing and thawing cycles to complete loss of activity", "setting": "[4]", "value": 5, "unit": "cycles"}, {"measurement": "time to complete loss of activity on storage in solution", "setting": "[4]; 4° C.", "value": "two"}]}, {"molecule": "Trypsin: native bovine trypsin (TPCK-trypsin, Worthington), positive control (protein, UniProt P00760 24-246, looked up, TPCK-treated, native bovine trypsin (TPCK-trypsin, Worthington), positive control) Serine protease 1: IVGGYTCGANTVPYQVSLNSGYHFCGGSLINSQWVVSAAHCYKSGIQVRLGEDNINVVEGNEQFISASKSIVHPSYNSNTLNNDIMLIKLKSAASLNSRVASISLPTSCASAGTQCLISGWGNTKSSGTSYPDVLKCLKAPILSDSSCKSAYPGQITSNMFCAGYLEGGKDSCQGDSGGPVVCSGKLQGIVSWGSGCAQKNKPGVYTKVCNYVSWIKQTIASN", "values": [{"measurement": "hydrolytic activity on BTEE", "setting": "[1]", "value": "zero activity; also recorded: does not hydrolyze"}, {"measurement": "hydrolytic activity on BTEE", "setting": "[1]; listed as trypsin", "value": "not hydrolysed"}, {"measurement": "% Activity of Native Enzyme at 35° C.", "setting": "[2]; Temp. 10", "value": 4.5, "unit": "%"}, {"measurement": "% Activity of Native Enzyme at 35° C.", "setting": "[2]; Temp. 35", "value": 100, "unit": "%"}, {"measurement": "% Activity of Native Enzyme at 35° C.", "setting": "[2]; Temp. 48", "value": 67, "unit": "%"}, {"measurement": "Km", "setting": "[2]", "value": "2560 ± 160", "unit": "µM"}, {"measurement": "kcat", "setting": "[2]", "value": "221 ± 9.7", "unit": "sec.^-1"}, {"measurement": "kcat /Km", "setting": "[2]", "value": 86000, "unit": "M⁻¹ s⁻¹"}, {"measurement": "kcat", "setting": "[2]; listed as trypsin", "value": 221, "unit": "sec.^-1"}, {"measurement": "hydrolytic activity on TAME", "setting": "[2]; in words", "value": "hydrolyzes"}, {"measurement": "Km", "setting": "[5]; Lorand et al. 1961, read-out: Km reported value", "value": 2760, "unit": "µM"}, {"measurement": "kcat reported value", "setting": "[5]; Martin et al. 1959", "value": 187, "unit": "s⁻¹"}]}]}
